Data on two compounds can be found in US6680318B2, “Piperazinomethylbenzamides as delta-opioid receptor agonists” (AstraZeneca AB, priority 1999, dated 2004).

A word on the Emax: it is the maximal effect, on the per cent scale that the assay sets. By IC50 is commonly meant the concentration at which inhibition is half-maximal. A low value points to greater potency.

Each structure is given as a SMILES string. Where a name gives a salt, the structure may show the parent alone. Read-outs that look alike come from different tables or passages of the source.

The target in one series is T1, HDelta (Homo sapiens, UniProt P41143).
T1 construct: expressed in transfected cells; host or cells: human 293S cells (geneticin-selected)
Put plainly: HDelta agonist activity (EC50, % EMAX). Format: biochemical.

In another series the target is Rat Brain (Rattus norvegicus, UniProt P33533). Put plainly: Rat Brain agonist activity (EC50, % EMAX). Format: biochemical.
Series [1] concerns the target T2, cloned human δ receptors (HDelta) (Homo sapiens, UniProt P41143).
T2 construct: expressed in transfected cells; host or cells: human 293S cells (geneticin-selected)
Nature of the series: Binding assay on membranes of 293S cells expressing cloned human δ receptor (HDelta).

Another series has as its target T3, Mouse Brain (Mus musculus, UniProt P32300).
T3 construct: from tissue; host or cells: mouse brain
Put plainly: Mouse Brain agonist activity (EC50, % EMAX). Type of series: biochemical.

Series [2] can be described thus: MLM metabolic stability (% remaining). Type of series: in vitro ADME, mouse.
Series [3] can be described thus: RLM metabolic stability (% remaining). Type of series: in vitro ADME, rat.
The mark [4] stands for this setting: 10000 (concentration, unit not given).
Setting [5] is: 100000 (concentration, unit not given).

T1 sequence (P41143 whole entry): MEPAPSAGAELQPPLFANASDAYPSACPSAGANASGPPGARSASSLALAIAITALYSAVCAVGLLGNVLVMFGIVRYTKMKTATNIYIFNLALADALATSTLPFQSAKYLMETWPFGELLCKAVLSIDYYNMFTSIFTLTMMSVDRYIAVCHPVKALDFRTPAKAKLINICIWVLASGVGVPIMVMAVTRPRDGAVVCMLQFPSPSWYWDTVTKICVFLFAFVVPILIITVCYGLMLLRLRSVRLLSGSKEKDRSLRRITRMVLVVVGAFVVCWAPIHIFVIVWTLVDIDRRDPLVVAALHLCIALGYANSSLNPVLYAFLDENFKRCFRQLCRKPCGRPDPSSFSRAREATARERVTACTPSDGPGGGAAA
Rat Brain, sequence (P33533 whole entry): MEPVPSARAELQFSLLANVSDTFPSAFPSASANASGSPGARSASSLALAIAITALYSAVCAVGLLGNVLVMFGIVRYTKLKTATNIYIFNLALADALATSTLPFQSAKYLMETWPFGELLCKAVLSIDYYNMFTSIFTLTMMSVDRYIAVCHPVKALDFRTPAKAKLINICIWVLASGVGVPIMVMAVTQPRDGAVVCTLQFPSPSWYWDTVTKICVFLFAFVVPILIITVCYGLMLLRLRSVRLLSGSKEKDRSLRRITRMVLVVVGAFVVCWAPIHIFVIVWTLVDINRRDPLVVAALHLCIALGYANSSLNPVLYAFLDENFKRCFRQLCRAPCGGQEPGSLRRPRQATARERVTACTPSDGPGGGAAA
T3 sequence (P32300 whole entry): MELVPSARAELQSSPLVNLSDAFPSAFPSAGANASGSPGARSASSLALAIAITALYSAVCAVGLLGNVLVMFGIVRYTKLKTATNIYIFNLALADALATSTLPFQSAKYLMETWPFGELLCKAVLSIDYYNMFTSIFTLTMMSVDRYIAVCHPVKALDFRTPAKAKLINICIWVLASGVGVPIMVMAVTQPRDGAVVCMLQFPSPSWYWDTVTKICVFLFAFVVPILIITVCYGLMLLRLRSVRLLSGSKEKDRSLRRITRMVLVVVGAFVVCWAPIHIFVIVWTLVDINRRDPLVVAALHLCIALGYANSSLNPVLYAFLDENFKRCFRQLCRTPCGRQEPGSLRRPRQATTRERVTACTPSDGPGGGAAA
T2 sequence (P41143 whole entry): as the sequence (P41143 whole entry) above

With `CCN(CC)C(=O)c1ccc(C(c2cccc3c2OC(C)(C)C3)N2CCN(Cc3cccnc3)CC2)cc1` (stereo not shown) [Example 3, 4-{(2,2-dimethyl-2,3-dihydro-1-benzofuran-7-yl)[4-(3-pyridinylmethyl)-1-piperazinyl]methyl}-N,N-diethylbenzamide Dihydrochloride], the Emax was determined as 103% on HDelta and 93% on Rat Brain. Moreover, the EC50 at HDelta (read-out: HDelta EC50) was 19.5 nM.

With `CCN(CC)C(=O)c1ccc(C(c2cccc3c2OC(C)(C)C3)N2CCN(Cc3ccccn3)CC2)cc1` (stereo not shown) [Example 4, 4-{(2,2-dimethyl-2,3-dihydro-1-benzofuran-7-yl)[4-(2-pyridinylmethyl)-1-piperazinyl]methyl}-N,N-diethylbenzamide Ditrifuroacetae], the IC50 in series [1] was found to be 3.26 nM. For the same compound, the EC50 at HDelta amounted to 7.38 nM; at Mouse Brain, 144 nM. Moreover, the Emax at HDelta worked out at 104%; on Rat Brain, 118%; on Mouse Brain it was 118%. The “MLM 10000 % rem.” value in series [2] (setting [4]) stood at 44.5%. Further, in series [2] (setting [5]), the “MLM 100000 % rem.” value amounted to 93%. For the same compound, the “RLM 10000 % rem.” value in series [3] (setting [4]) is given as 42.5%. In addition, the “RLM 100000 % rem.” value in series [3] (setting [5]) came out at 90.5%.
